Assay results published in BindingDB's records for doi:10.1021/acs.jmedchem.1c00408 (Virginia Commonwealth University, 2021).

Columns and labels:
[1] = Inhibition of MOR-mediated HIV1 BaL01 infection in GFP-tagged human OPRM1 transfected TZM-bl cells co-expressing HIV1 - LTR assessed as inhibition of viral entry by measuring LTR-driven luciferase activity pretreated for 1 hr before infection measured after 2 to 3 days of infection
[2] = Inhibition of MOR-mediated HIV1 BaL01 infection in GFP-tagged human OPRM1 transfected TZM-bl cells co-expressing HIV1 - LTR assessed as inhibition of viral entry in presence of morphine by measuring LTR-driven luciferase activity pretreated for 1 hr before infection measured after 2 to 3 days of infection
[3] = Inhibition of CCR5-mediated HIV-1 Bal entry in human GHOST CCR5 cells assessed as decrease in viral reverse transcriptase activity by measuring [3H]thymidine triphosphate incorporation measured after 60 to 90 mins by scintillation counting analysis

CC(C)c1nnc(CCNC(=O)COCC(=O)NCCCCCCCNC(=O)COCC(=O)N[C@@H]2CC[C@@]3(O)[C@H]4Cc5ccc(O)c6c5[C@@]3(CCN4CC3CC3)[C@H]2O6)n1C1C[C@H]2CC[C@@H](C1)N2CC[C@H](NC(=O)C1CCC(F)(F)CC1)c1ccccc1 (some centres undefined)
EC50 [1]: 368 nM | EC50 [2]: 247 nM | EC50 [3]: 93 nM

Cc1nnc(C(C)C)n1C1C[C@H]2CC[C@@H](C1)N2CC[C@H](NC(=O)C1CCC(F)(F)CC1)c1ccc(NC(=O)COCC(=O)NCCCCCCCNC(=O)COCC(=O)N[C@@H]2CC[C@@]3(O)[C@H]4Cc5ccc(O)c6c5[C@@]3(CCN4CC3CC3)[C@H]2O6)cc1 (some centres undefined)
EC50 [3]: > 100000 nM
